{
  "source": "ChEMBL document CHEMBL3045222",
  "about": "“Synthesis of novel benzimidazole derivatives: as potent analgesic agent” (2013)",
  "assay_type_in_all_cases": "functional",
  "key": {"[1]": {"system": "Rattus norvegicus", "assay": "Analgesic activity in Rattus norvegicus (rat) assessed as time taken to withdraw tail in response to heat stress at 50 mg/kg, po after 60 min by tail flick method based analgesiometer analysis (reference value: 6.5 +/-0.22 secs)"}, "[2]": {"system": "Rattus norvegicus", "assay": "Analgesic activity in Rattus norvegicus (rat) assessed as time taken to withdraw tail in response to heat stress at 50 mg/kg, po after 30 min by tail flick method based analgesiometer analysis (reference value: 5.50 +/-0.43 secs)"}, "[3]": {"system": "Rattus norvegicus", "assay": "Analgesic activity in Rattus norvegicus (rat) assessed as time taken to withdraw tail in response to heat stress at 50 mg/kg, po after 120 min by tail flick method based analgesiometer analysis (reference value: 5.16 +/-0.31 secs)"}, "[4]": {"system": "Rattus norvegicus", "assay": "Analgesic activity in Rattus norvegicus (rat) assessed as time taken to withdraw tail in response to heat stress at 50 mg/kg, po after 90 min by tail flick method based analgesiometer analysis (reference value: 6.00 +/-0.36 secs)"}},
  "data": [
    {"smiles": "CCCCn1c(-c2c(O)ccc3ccccc23)nc2ccc(OC)cc21", "values": [
      {"measurement": "Time", "setting": "[1]", "result": 9.33, "unit": "s"},
      {"measurement": "Time", "setting": "[2]", "result": 8.66, "unit": "s"},
      {"measurement": "Time", "setting": "[3]", "result": 6.66, "unit": "s"},
      {"measurement": "Time", "setting": "[4]", "result": 7.66, "unit": "s"}
    ]},
    {"smiles": "CCCCn1c(-c2c(O)ccc3ccccc23)nc2ccc([N+](=O)[O-])cc21", "values": [
      {"measurement": "Time", "setting": "[1]", "result": 6.5, "unit": "s"},
      {"measurement": "Time", "setting": "[2]", "result": 6.66, "unit": "s"},
      {"measurement": "Time", "setting": "[3]", "result": 4.83, "unit": "s"},
      {"measurement": "Time", "setting": "[4]", "result": 6, "unit": "s"}
    ]},
    {"smiles": "Cn1c(-c2c(O)ccc3ccccc23)nc2ccccc21", "values": [
      {"measurement": "Time", "setting": "[1]", "result": 7, "unit": "s"},
      {"measurement": "Time", "setting": "[2]", "result": 6.5, "unit": "s"},
      {"measurement": "Time", "setting": "[3]", "result": 5.16, "unit": "s"},
      {"measurement": "Time", "setting": "[4]", "result": 6, "unit": "s"}
    ]},
    {"smiles": "Cn1c(-c2c(O)ccc3ccccc23)nc2ccc([N+](=O)[O-])cc21", "values": [
      {"measurement": "Time", "setting": "[1]", "result": 11.5, "unit": "s"},
      {"measurement": "Time", "setting": "[2]", "result": 10.5, "unit": "s"},
      {"measurement": "Time", "setting": "[3]", "result": 7, "unit": "s"},
      {"measurement": "Time", "setting": "[4]", "result": 6.83, "unit": "s"}
    ]},
    {"smiles": "O=C(O)Cc1ccccc1Nc1c(Cl)cccc1Cl", "note": "[DICLOFENAC]", "values": [
      {"measurement": "Time", "setting": "[1]", "result": 11.66, "unit": "s"},
      {"measurement": "Time", "setting": "[2]", "result": 10.83, "unit": "s"},
      {"measurement": "Time", "setting": "[3]", "result": 7, "unit": "s"},
      {"measurement": "Time", "setting": "[4]", "result": 10, "unit": "s"}
    ]},
    {"smiles": "COc1ccc2nc(-c3c(O)ccc4ccccc34)n(C)c2c1", "values": [
      {"measurement": "Time", "setting": "[1]", "result": 10.33, "unit": "s"},
      {"measurement": "Time", "setting": "[2]", "result": 10.66, "unit": "s"},
      {"measurement": "Time", "setting": "[3]", "result": 6.83, "unit": "s"},
      {"measurement": "Time", "setting": "[4]", "result": 8.5, "unit": "s"}
    ]},
    {"smiles": "CCCCn1c(-c2c(O)ccc3ccccc23)nc2ccccc21", "values": [
      {"measurement": "Time", "setting": "[1]", "result": 10.5, "unit": "s"},
      {"measurement": "Time", "setting": "[2]", "result": 10.66, "unit": "s"},
      {"measurement": "Time", "setting": "[3]", "result": 6.83, "unit": "s"},
      {"measurement": "Time", "setting": "[4]", "result": 9.66, "unit": "s"}
    ]}
  ]
}
